From patent US20150366190A1, “Sustained Release Methods to Defeat Plant Pests” (BioGuard Technologies, Inc., priority 2014, published 2015)
Where “and” joins values, the source holds several entries; their conditions need not be identical. Equal entries are not always repeated.

Key:
[1] = Simulated rainfall / sequential aqueous leaching of dried films; format: physicochemical; design: depletion of supplied active by aqueous extraction / release rate, % of supplied active: concentration or dose not given beside the values; conditions: for release rate of active: FIG. 10; for release rate, % of supplied active: FIG. 8; for recoverable active released to water: FIG. 9
Procedure: (§1) Two experimental protocols were used to evaluate aqueous release and the extent of active retention. The first protocol was a rapid solvent extraction screen that involved dipping the coated specimens sequentially into vials containing 35 ml water for 1, 1, 5, and 10 minutes, then 50% MeOH for 10 minutes, and 100% MeOH for 24 hours. This protocol provided a rapid comparison of water soluble and entrained, but releasable, active fractions. The second protocol was to assess release rates based on simulated precipitation/rainfall conditions. This protocol involved maintaining test samples in successive 35 ml volumes of water for 24-hour periods for up to […], providing a cumulative daily release rate from dried films. This water extraction period was followed by a single extraction in 100% MeOH for 24 and 48 hrs to determine residual/entrained or solvent removable active. The aqueous leach procedure is considered extreme in simulating intermittent daily rainfalls of varying intensity, but does provide the rates of release for comparative purposes.
The solvent extraction method used above represents a rapid screen for the comparative entrainment behavior of actives and surfactants in the formulated latex system. To address the problem of foliar retention and longevity of actives using a single field application is more a function of rainfall frequency and intensity. To better understand this process under laboratory conditions, we employed a continuous/sequential aqueous (pH 6.0-6.8) leaching process, with periodic sampling and replacement of the solution over periods up to 288 hrs. This is a rather harsh leaching process, but is more representative than the water/MeOH solvent extraction procedure used for screening.
In the simulated rainfall study, we compared the aqueous extraction patterns for cyproconazole at 0.06% with 0.24% EtOH (1×) added to latex (with no surfactant), cyproconazole with […] and 0.05% PP912T added to latex, and cyproconazole with 1% EtOH (4×) and 0.05% PP912T added to latex. This combination was designed to determine formulation variables including surfactant and increased EtOH.
Aqueous extraction of formulations containing chlorothalonil and spiroxamine with latex without surfactant and with PP912T, AU-398 and AU-391A were compared to evaluate long term extraction profiles and residual active after 144 hrs of extraction, sampled at 24 hr intervals.

[2] = Rapid solvent extraction screen of coated specimens (water, 50% MeOH, 100% MeOH); format: physicochemical
Procedure: as §1
The influence of formulation factors on cyproconazole release and entrainment from aqueous solutions containing 0.2% EtOH without latex (FIG. 1A) was compared to the subsequent EtOH studies with latex. […] This would be expected to represent the relative solubility and release of active, and likely dependent on water solubility of the active.
To determine the influence of latex on cyproconazole release, cyproconazole was first dissolved in ethanol and added to 2% latex solutions to assess the effects on cyproconazole binding with latex using solvent extractions (FIG. 1A).
The first step was to determine the solvent extractability of the non-latex formulations. This was based on readily soluble (water, 17 minutes), easily soluble (50% MeOH, 10 minutes), and relatively non-water soluble (100% MeOH, 24 hr) fractions of the formulations (FIG. 3).
A total of nine commercial surfactants (Table 1) were compared for relative entrainment of cyproconazole in latex, based on the percent of active contained in the 100% MeOH fraction (FIG. 5).
The same solvent extraction protocol was used to evaluate 2 other fungicides (chlorothalonil and spiroxamine) with differing chemistries (water solubility and solvent solubility). These were evaluated using the same solvent extraction protocol. The three surfactants that worked best with cyproconazole were used for these actives.

[3] = EtOH printed for cyproconazole only; cited from earlier work
[4] = aqueous 0.2% EtOH, without latex, FIG. 1A

Structure (SMILES): N#Cc1c(Cl)c(Cl)c(Cl)c(C#N)c1Cl [chlorothalonil]
- release rate of active ([1]; latex alone, at 6 days): 63%
- release rate of active ([1]; latex with surfactants, 6 days): 80-88%
- active remained after extraction ([1]; without surfactant, after 6 days of extraction, FIG. 11): 16%
- 100% MeOH retention compared to no surfactant ([2]; latex, with PP912T and AU-398, FIG. 6): increase
- solvent solubility [3]: 10000 µg/mL

Structure (SMILES): CC(C1CC1)C(O)(Cn1cncn1)c1ccc(Cl)cc1 (centres unmarked) [cyproconazole]
- release rate, % of supplied active ([1]; latex with AU-391A, at 6 days): 60%
- release rate, % of supplied active ([1]; latex with AU-398, at 6 days): 50%
- release rate, % of supplied active ([1]; latex with PP912T, at 6 days): 73%
- depletion of supplied active by aqueous extraction ([1]; latex with surfactant PP912T, at 288 days, FIG. 7): 90%
- time to attain 90% loss to water ([1]; latex/EtOH, FIG. 1B): 12 days
- time at which aqueous loss of supplied active was 90% ([1]; without latex, FIG. 1B): 2.5 days
- 50% MeOH fraction of active [2, 4]: 68%
- 100% MeOH fraction of active [2, 4]: 13.5% and 13%
- water extractable fraction of active [2, 4]: 18.5%
- 100% MeOH fraction of active ([2]; dissolved in ethanol, added to 2% latex solution, FIG. 1A): 32%

Structure (SMILES): CCCN(CC)CC1COC2(CCC(C(C)(C)C)CC2)O1 (centres unmarked) [spiroxamine]
- recoverable active released to water ([1]; latex alone, 144 hr extraction): 85%
- recoverable active released to water ([1]; latex plus AU-391A, 144 hr extraction): 85%
- recoverable active released to water ([1]; latex plus AU-398, 144 hr extraction): 50%
- recoverable active released to water ([1]; latex plus PP912T, 144 hr extraction): 50%
- effect on release compared to latex alone ([1]; latex with AU-391A): no effect
- release rate compared to latex alone ([1]; latex with PP912T and AU-398): substantial reduction
- active released ([1]; with latex, without surfactant, 6 days extraction, FIG. 13): 94%
- release to water compared to the no-surfactant control ([2]; latex, with PP912T, AU-398 and AU-391A, FIG. 6): increased release
